Structures are written as SMILES. In brackets after ≈: the same amount, converted by molar mass. Read-outs that look alike come from different tables or passages of the source.

The text below walks through data of publication PMC8875489, “Pharmaceutical and Safety Profile Evaluation of Novel Selenocompounds with Noteworthy Anticancer Activity” (Pharmaceutics, 2022).

On the set-up of data set [1]: method as in PMID 33260948. The conditions noted are these: cited from earlier work.
Data set [2] is described as follows: Water solubility of methylseleno-aspirin (literature). Format: physicochemical. To be noted: recalculated taking molecular weight into account. The text has this:
The low solubility was not a surprise: according to the literature, the majority of the synthetic organic selenocompounds are poorly soluble in water. […] (or 0.0568 g/L when taking its molecular weight into account). […] To improve the solubility of water-insoluble anticancer drug candidates, the use of solubilizers, such as surfactants, organic solvents, cyclodextrins, lipids, and pH modifiers, is a common approach. Even though lowly water-soluble drugs can become moderately soluble if a suitable amount of additives is used, the usage of the additives need to be kept below their toxicity rate. Moreover, the usage of solubilizers can cause drug instability and is limited due to undesirable effects.

Details of data set [3]: method as in PMID 28245633. To be noted: known selenocompounds; cited from earlier work.

For the compound `C[Se]C(=O)c1ccccc1OC(C)=O` [methylseleno-aspirin], the water solubility in data set [1] was 220 µM (≈ 56.6 µg/mL); in data set [2], 56.8 µg/mL (≈ 221 µM). For the compound `N[C@@H](CC[Se]CC[C@H](N)C(=O)O)C(=O)O` [L-selenohomolanthionine], the permeability in data set [3] is on record as 2.5%. Turning to `C[Se]CC[C@H](N)C(=O)O` [selenomethionine], the permeability in data set [3] is listed as 12.4%.

Regarding `N[C@@H](C[Se][Se]C[C@H](N)C(=O)O)C(=O)O` [selenocystine], in data set [3], the permeability is 3.1%. As for `C[Se]C1O[C@H](CO)[C@H](O)[C@H](O)[C@H]1NC(C)=O` (stereo partly drawn) [Se-methylseleno-N-acetylgalactosamine], the permeability in data set [3] is recorded as 2.9%.
